Assays:
TRPM8 [1] = target: T1, TRPM8 (Homo sapiens, UniProt Q7Z2W7); assay: TRPM8 antagonist activity by Fura-2 Ca2+ imaging in HEK-293 cells stably expressing human TRPM8; format: cell-based; conditions: for IC50: read-out: Functional Activity hTRPM8 potency IC50 ± SEM
TRPM8 [2] = target: T1, TRPM8; assay: Whole-cell patch-clamp electrophysiology, menthol-evoked TRPM8 currents in HEK-293 cells transiently transfected with human TRPM8; format: cell-based
Procedure: HEK-293 Cell culture. Human embryonic kidney (HEK) 293 cells (ATCC CRL-1573) were cultured in growth medium comprising 90% Dulbecco's modified Eagle's medium, 10% fetal bovine serum, 100 U·mL-1 penicillin-streptomycin, and 2 mM L-glutamine (Gibco). Cells were cultured in 35 mm polystyrene dishes (Falcon) at 37° C. in the presence of 5% CO2. Cells were transiently transfected with human TRPM8 in a pIRES2 plasmid containing EGFP as a reporter. This plasmid expresses bicistronic mRNA with an internal ribosome entry site (IRES) positioned between the TRPM8 gene and the fluorescent protein reporter gene such that the reporter is not covalently fused to TRPM8. […]
Whole-cell patch-clamp electrophysiology. […] Osmolality was measured using a Vapro 5600 vapor pressure osmometer (Wescor). […] Pipettes had resistances of 2-5 MO as measured in the extracellular solution. […] Current response from each cell was measured under each concentration of Compound 14. Only one cell was measured per cover slip to prevent confounding effects of previous exposure to menthol and Compound 14.
Data analysis. For each cell, current magnitude at each concentration of Compound 14 was normalized by dividing by the maximum current measured at 500 μM menthol and without the antagonist. Normalized currents from six cells were averaged at each concentration of antagonist, and the standard error of the mean was calculated at each point. […]

human TRPA1 = human TRPA1 (Homo sapiens, UniProt O75762); assay: TRPA1 agonist and antagonist Ca2+ flux assay (FLIPR, Fluo-8) in HEK293 cells stably expressing human TRPA1; format: cell-based; conditions: for hTRPA1 % Activation (n = 3-5): normalized to Emax of AITC (300 μM)
human TRPV1 = human TRPV1 (Homo sapiens, UniProt Q8NER1); assay: TRPV1 agonist and antagonist Ca2+ flux assay (FLIPR, Fluo-8) in HEK293 cells stably expressing human TRPV1; format: cell-based; conditions: for hTRPV1 % Activation (n = 3): normalized to Emax of capsaicin (3 μM)
[3] = Stability in liver microsomes; format: in vitro ADME; conditions: mouse liver microsomes, 1 μM, NADPH
Procedure: Stability in liver microsomes. Male CD-1 mouse liver microsomes (Lot#1710069) were purchased from XenoTech. The reaction mixture, minus NADPH, was prepared as described below. Compound 14 was added into the reaction mixture at a final concentration of 1 μM. The control compound, testosterone, was run simultaneously with Compound 14 in a separate reaction. An aliquot of the reaction mixture (without cofactor) was equilibrated in a shaking water bath at 37° C. for 3 minutes. The reaction was initiated by the addition of the cofactor, and the mixture was incubated in a shaking water bath at 37° C. Aliquots (100 μL) were withdrawn at 0, 10, 20, 30, and 60 minutes. Compound 14 and testosterone samples were immediately combined with 400 μL of ice-cold 50/50 acetonitrile (ACN)/H2O containing 0.1% formic acid and internal standard to terminate the reaction. The samples were then mixed and centrifuged to precipitate proteins. All samples were assayed by LC-MS/MS using electrospray ionization. […] are compared to the PARR at time 0 to determine the percent remaining at each time point. Half-lives and intrinsic clearance were calculated using GraphPad software, fitting to a single-phase exponential decay equation.
In vitro metabolic stability. Compound 14 was evaluated for metabolic stability in mouse liver microsomes by Absorption Systems (Exton, Pa.), by determining the percent remaining at 0, 10, 20, 30 and 60 minutes when incubated with mouse liver microsomes in the presence of NADPH. The half-life (t1/2) and in vitro intrinsic clearance (CLint) of Compound 14 was calculated, in addition to the control (testosterone).

[4] = test system: icilin-induced wet-dog shakes (WDS) in ICR (CD1) mice; assay: Wet-dog shakes (WDS) assay, icilin-induced; format: in vivo, mouse
[5] = HEK293, read-out: hTRPA1 % Inhibition (n = 3)
[6] = at concentrations 13- to 25-fold higher than hTRPM8 IC50
[7] = HEK293, read-out: hTRPV1 % Inhibition (n = 3)

Chain of human TRPV1 (Q8NER1 whole entry): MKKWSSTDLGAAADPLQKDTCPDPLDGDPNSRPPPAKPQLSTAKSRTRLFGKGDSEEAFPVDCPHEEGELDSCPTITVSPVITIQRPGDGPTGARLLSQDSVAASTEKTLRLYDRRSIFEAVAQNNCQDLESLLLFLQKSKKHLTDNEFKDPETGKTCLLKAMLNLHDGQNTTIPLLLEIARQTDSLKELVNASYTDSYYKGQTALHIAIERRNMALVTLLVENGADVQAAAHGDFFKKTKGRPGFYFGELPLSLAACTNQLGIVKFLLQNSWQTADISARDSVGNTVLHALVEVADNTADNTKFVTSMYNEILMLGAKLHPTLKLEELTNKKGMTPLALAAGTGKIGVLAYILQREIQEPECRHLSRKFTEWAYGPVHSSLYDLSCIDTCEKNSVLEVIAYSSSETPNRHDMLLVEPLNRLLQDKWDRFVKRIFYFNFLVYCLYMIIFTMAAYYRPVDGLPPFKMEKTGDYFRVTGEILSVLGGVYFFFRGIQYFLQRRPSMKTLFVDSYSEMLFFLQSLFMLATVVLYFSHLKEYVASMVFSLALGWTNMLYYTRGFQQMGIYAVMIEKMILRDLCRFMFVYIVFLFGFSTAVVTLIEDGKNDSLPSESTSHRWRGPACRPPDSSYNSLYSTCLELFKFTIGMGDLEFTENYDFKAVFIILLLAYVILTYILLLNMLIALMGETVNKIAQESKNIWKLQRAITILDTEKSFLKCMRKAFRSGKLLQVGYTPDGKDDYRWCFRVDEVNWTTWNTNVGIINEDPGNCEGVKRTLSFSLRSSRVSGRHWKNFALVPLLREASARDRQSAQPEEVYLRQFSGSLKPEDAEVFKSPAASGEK
Chain of human TRPA1 (O75762 whole entry): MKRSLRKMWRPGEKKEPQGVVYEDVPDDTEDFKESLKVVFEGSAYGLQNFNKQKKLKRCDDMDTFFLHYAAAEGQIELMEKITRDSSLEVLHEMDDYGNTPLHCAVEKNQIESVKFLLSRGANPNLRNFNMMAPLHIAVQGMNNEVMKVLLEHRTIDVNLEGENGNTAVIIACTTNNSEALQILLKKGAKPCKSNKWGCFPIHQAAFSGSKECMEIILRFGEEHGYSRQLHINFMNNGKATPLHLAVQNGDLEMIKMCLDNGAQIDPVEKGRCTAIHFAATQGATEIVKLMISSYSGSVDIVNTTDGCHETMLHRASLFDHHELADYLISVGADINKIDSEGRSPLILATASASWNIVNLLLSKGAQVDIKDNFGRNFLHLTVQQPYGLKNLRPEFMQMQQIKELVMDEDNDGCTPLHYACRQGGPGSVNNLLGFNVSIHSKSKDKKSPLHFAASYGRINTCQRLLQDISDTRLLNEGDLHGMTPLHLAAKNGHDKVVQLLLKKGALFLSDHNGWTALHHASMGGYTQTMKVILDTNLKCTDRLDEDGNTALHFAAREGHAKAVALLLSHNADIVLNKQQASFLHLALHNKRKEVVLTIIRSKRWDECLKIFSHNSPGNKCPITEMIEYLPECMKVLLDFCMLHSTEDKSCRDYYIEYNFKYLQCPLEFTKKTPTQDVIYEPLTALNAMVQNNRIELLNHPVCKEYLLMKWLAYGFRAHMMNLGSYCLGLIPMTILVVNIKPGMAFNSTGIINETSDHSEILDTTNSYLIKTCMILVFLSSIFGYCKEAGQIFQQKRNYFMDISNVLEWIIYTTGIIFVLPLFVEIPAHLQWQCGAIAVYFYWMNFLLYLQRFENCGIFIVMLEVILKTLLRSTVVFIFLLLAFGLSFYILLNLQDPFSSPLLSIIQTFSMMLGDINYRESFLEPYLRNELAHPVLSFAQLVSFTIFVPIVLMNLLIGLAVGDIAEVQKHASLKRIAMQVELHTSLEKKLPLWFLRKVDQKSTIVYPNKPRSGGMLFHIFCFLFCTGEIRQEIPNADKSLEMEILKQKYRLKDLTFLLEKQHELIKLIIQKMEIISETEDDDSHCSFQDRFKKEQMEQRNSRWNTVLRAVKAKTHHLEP
T1 sequence (Q7Z2W7 whole entry): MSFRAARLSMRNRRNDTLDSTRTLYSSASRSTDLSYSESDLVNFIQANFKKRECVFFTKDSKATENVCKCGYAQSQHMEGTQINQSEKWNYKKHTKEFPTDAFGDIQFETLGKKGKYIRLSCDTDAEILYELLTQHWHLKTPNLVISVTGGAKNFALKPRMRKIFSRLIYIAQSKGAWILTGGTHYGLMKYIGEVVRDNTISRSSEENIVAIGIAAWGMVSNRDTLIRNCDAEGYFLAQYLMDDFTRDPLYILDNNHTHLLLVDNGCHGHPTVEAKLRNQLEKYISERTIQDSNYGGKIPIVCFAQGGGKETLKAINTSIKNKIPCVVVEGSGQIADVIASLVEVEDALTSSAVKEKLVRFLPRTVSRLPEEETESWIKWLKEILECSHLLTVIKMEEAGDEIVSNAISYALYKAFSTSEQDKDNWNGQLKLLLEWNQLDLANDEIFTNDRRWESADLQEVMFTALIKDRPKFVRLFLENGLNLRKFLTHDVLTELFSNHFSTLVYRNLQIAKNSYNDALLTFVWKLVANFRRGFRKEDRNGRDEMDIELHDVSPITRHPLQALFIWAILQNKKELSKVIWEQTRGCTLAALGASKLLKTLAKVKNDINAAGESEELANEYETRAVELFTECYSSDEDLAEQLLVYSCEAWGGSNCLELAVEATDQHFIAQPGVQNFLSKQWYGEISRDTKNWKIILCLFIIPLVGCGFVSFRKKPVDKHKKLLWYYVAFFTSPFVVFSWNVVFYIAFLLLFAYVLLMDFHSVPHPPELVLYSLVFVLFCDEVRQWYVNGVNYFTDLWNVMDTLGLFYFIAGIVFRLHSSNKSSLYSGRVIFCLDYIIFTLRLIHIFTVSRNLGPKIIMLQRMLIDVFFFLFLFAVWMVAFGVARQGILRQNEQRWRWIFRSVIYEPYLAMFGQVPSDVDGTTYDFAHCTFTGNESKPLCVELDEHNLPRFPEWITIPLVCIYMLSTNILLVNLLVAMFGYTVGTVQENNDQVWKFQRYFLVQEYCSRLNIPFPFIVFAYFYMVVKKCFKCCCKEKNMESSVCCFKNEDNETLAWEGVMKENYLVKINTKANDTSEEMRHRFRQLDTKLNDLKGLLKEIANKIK

effect on icilin-induced Ca2+ influx at higher concentrations (TRPM8 [1]; higher concentrations of the dose-response curve): nearly abolishes the Ca^2+ influx
lowest concentration still causing significant reduction in icilin-evoked TRPM8-mediated Ca2+ entry (TRPM8 [1]; icilin 500 nM): 3 nM
IC50 (TRPM8 [1]; inhibition of icilin (500 nM)-evoked Ca2+ entry, HEK-293 cells stably expressing hTRPM8, mean ± SEM, three independent experiments): 2.4 ± 1 nM
IC50 (TRPM8 [1]): ≤ 10 nM
antagonist activity relative to a tryptamine-based antagonist in the same assay (TRPM8 [2]; patch clamp): 6 fold
IC50 (TRPM8 [2]; whole-cell patch clamp, +80 mV, 500 μM menthol, n=6 cells, read-out: IC50, inhibition of menthol-evoked TRPM8 currents): 64 ± 2 nM
inhibition at 0.003 µM (human TRPA1; [5]): -6 ± 5%
inhibition at 0.03 µM (human TRPA1; [5]): -3 ± 2%
effect on hTRPA1-mediated responses (intrinsic and antagonist activity) (human TRPA1; [6]): do not affect
selectivity for TRPM8 vs. TRPA1 (human TRPA1; from FLIPR single-point assays): 13 fold
hTRPA1 % Activation (n = 3-5) (human TRPA1; tested at 3 nM): −0.8 ± 0.4%
hTRPA1 % Activation (n = 3-5) (human TRPA1; tested at 30 nM): 0.1 ± 1.2%
inhibition at 0.003 µM (human TRPV1; [7]): -9 ± 2%
inhibition at 0.03 µM (human TRPV1; [7]): -0.6 ± 5%
effect on hTRPV1-mediated responses (intrinsic and antagonist activity) (human TRPV1; [6]): do not affect
selectivity for TRPM8 vs. TRPV1 (human TRPV1; from FLIPR single-point assays): 13 fold
hTRPV1 % Activation (n = 3) (human TRPV1; tested at 3 nM): 1 ± 1%
hTRPV1 % Activation (n = 3) (human TRPV1; tested at 30 nM): 1 ± 2%
% Remaining of Initial (n = 1), 0 min ([3]; 0 min): 100%
% Remaining of Initial (n = 1), 10 min ([3]; 10 min): 78%
% Remaining of Initial (n = 1), 20 min ([3]; 20 min): 57%
% Remaining of Initial (n = 1), 30 min ([3]; 30 min): 47%
% Remaining of Initial (n = 1), 60 min ([3]; 60 min): 31%
Structure (SMILES): O=C(NC1CCC2(CCCC2)CC1)c1ccc(-c2ccccc2)cc1 [Compound 14, N-(spiro[4.5]decan-8-yl)-[1,1′-biphenyl]-4-carboxamide]
effect on menthol-evoked TRPM8-mediated Ca2+ entry (TRPM8 [1]; compound at 3 nM against maximal (100 μM) menthol): significantly (P<0.01) reduce TRPM8-mediated Ca^2+ entry triggered by menthol
inhibition of WDS at the highest dose compared with gabapentin ([4]; 50 mg/kg s.c., gabapentin 25 mg/kg s.c.): efficacy comparable to that observed with a standard analgesic dose of gabapentin
effect on icilin-induced wet-dog shakes ([4]; 1, 30 and 50 mg/kg s.c. 30 minutes before icilin (10 mg/kg i.p.)): marked, dose-dependent antinociceptive behavior

From patent publication US20220313629A1, “TRANSIENT POTENTIAL MELASTATIN 8 (TRPM8) ANTAGONISTS AND RELATED METHODS” (MARSHALL UNIVERSITY RESEARCH CORPORATION, priority 2019, published 2022)
